The source of these data is patent publication US12239632B2, “Asymmetric allyl tryptamines” (Alexander Shulgin Research Institute, Inc., priority 2021, dated 2025).

Molecules are shown by their SMILES. Counter-ions that a name gives are not always drawn.

Assay [1] addresses T1, ADRA2A (Homo sapiens, UniProt P08913).
T1 construct: expressed in transfected cells
T1 sequence (P08913 1-465): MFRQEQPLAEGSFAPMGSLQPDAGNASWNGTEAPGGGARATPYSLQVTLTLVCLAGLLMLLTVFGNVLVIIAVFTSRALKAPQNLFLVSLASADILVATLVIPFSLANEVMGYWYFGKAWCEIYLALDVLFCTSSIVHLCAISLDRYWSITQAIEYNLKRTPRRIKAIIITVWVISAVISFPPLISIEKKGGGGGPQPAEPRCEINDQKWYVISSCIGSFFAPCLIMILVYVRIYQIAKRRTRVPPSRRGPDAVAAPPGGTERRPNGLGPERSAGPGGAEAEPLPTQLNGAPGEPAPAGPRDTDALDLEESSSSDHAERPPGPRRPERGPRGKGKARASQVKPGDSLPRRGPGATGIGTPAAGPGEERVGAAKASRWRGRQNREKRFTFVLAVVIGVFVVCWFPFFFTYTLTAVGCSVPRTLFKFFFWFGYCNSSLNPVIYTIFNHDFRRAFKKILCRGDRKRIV
The experiment in a line: In vitro functional activity, ADRA2A antagonist mode. Type of assay: cell-based.
Protocol: (§1) The assay monitors the activation of a GPCR via Gi and Gs secondary messenger signaling, using ß-Gal as a functional reporter. […] To determine Gi/Gs agonism, media was aspirated from cells and replaced with 15 μL 2:1 HBSS/10 mM HEPES:cAMP XS+Ab reagent. Concentrated (4×) test compound in assay buffer was added to cells and incubated at 37° C. or room temperature for 30 or 60 minutes. For Gi agonist activation, cells were incubated with EC80 forskolin in addition to a test compound. Vehicle concentration was 1%.

For assay [2], the target named is T2, DAT (Homo sapiens, UniProt Q01959).
T2 construct: expressed in transfected cells
The experiment in a line: Neurotransmitter transporter uptake assay, DAT blocker mode. Type of assay: cell-based.
Protocol: (§2) Methods—Monoamine Transporter Assay: Neurotransmitter uptake via transporters was measured using the Neurotransmitter Transporter Uptake Assay Kit from Molecular Devices. […] Increased intracellular fluorescence intensity following uptake of biogenic amine neurotransmitters via transporters is measured and can be run in a kinetic or endpoint mode.
(§3) Compound was added and the mixture was incubated. Following compound incubation, dye was added to the wells and the plate was re-incubated. Microplates were then transferred to a PerkinElmer Envision™ instrument for fluorescence signal detection.
(§4) Compound activity was analyzed using CBIS data analysis (ChemInnovation, CA). For blocker mode assays, percentage inhibition was calculated using the following formula: % Inhibition=100%×(1−(mean RLU of test sample−mean RLU of vehicle control)/(mean RLU of positive control−mean RLU of vehicle control)).

Assay [3] concerns the target T3, SERT (Homo sapiens, UniProt P31645).
T3 construct: expressed in transfected cells
As to the kind of experiment: cell-based. The following applies: blocker mode; read-out: EC50/IC50, SERT (Blocker).
Protocol: as §2, §3, §4

The target of assay [4] is T4, NET (Homo sapiens, UniProt P23975).
T4 construct: expressed in transfected cells
The experiment in a line: Neurotransmitter transporter uptake assay, NET blocker mode. Type of assay: cell-based.
Protocol: as §2, §3, §4

Assay [5] deals with T5, ADRA1A (Homo sapiens, UniProt P35348).
T5 construct: expressed in transfected cells
T5 sequence (P35348 1-466): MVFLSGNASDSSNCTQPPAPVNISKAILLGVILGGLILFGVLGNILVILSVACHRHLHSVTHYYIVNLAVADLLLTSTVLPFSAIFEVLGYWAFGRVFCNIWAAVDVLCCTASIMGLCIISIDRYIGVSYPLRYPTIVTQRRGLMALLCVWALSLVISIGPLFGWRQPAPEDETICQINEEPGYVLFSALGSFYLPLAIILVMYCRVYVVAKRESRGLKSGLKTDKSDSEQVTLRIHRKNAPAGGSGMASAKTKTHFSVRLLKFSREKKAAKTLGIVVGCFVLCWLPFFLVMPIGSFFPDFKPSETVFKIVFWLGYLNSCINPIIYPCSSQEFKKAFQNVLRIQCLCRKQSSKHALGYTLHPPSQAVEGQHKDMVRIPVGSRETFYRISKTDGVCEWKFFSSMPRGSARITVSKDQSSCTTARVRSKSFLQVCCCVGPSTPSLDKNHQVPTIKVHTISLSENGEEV
The experiment in a line: In vitro functional activity, ADRA1A antagonist mode. The format is cell-based.
Protocol: as §1

For assay [6], the target named is T6, MAOA (Homo sapiens, UniProt P21397).
T6 construct: purchased Sigma
T6 sequence (P21397 1-527): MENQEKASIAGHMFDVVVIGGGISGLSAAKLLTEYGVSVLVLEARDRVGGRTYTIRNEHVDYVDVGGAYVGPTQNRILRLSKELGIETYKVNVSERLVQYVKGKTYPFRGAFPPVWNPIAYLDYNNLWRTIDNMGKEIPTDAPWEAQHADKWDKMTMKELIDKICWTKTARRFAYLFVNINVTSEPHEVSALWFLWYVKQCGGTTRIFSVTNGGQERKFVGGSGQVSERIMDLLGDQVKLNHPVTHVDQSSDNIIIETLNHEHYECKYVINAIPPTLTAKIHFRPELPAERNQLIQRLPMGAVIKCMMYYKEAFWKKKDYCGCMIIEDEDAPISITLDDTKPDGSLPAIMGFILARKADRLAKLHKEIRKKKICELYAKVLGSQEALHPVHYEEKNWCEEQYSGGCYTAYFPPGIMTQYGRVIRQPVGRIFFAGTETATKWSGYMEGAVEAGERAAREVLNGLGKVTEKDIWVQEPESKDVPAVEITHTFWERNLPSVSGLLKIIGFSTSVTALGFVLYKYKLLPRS
The experiment in a line: MAO-A enzyme assay (kynuramine substrate). Type of assay: biochemical.
Protocol: Methods—Enzyme Assays: Enzymatic activity was determined by measuring either the consumption of substrate or production of product over time. For MAO-A (Sigma), enzyme and test compound were preincubated for 15 minutes at 37° C. before substrate addition. The reaction was initiated by addition of kynuramine and incubated at 37° ° C. for 30 minutes. The reaction was terminated by addition of NaOH. The amount of 4-hydroxyquinoline formed was determined through spectrofluorimetric readout with the emission detection at 380 nm and excitation wavelength 310 nm.

Assay [7] deals with T7, HTR2B (Homo sapiens, UniProt P41595).
T7 construct: expressed in transfected cells
As to the kind of experiment: Calcium mobilization assay, HTR2B agonist mode. The format is cell-based. Background: Calcium assays in cells follow changes in intracellular calcium, usually with a dye or a luminescent sensor.
Protocol: (§5) Compound activity was analyzed using CBIS data analysis suite (ChemInnovation, CA). For agonist mode assays, percentage activity was calculated using the following formula: % Activity=100%×(mean RFU of test sample−mean RFU of vehicle control)/(mean MAX RFU control ligand −mean RFU of vehicle control).

For assay [8], the target named is T8, hERG (Homo sapiens, UniProt Q12809).
T8 construct: expressed in transfected cells
As to the kind of experiment: FLIPR membrane potential ion channel assay, hERG blocker. The format is cell-based. For orientation: hERG is a cardiac potassium channel; its block is linked to QT prolongation.
Protocol: (§6) Methods—Ion Channel Assay: Membrane potential changes were measured using the FLIPR® Membrane potential Assay Kit. A fluorescent indicator dye in combination with a quencher was used to reflect real-time membrane potential changes associated with ion channel activation and ion transporter proteins. Calcium channel CAV1.2, potassium channel hERG, and sodium channel NAV1.5 were tested.
(§7) To determine agonist and antagonist activity, cell lines were expanded from freezer stocks, seeded into multi-well microplates, and incubated at 37° C. Cells were then loaded with dye and incubated again.
(§8) For agonist determination, cells were incubated with the sample a different dilutions to induce a response. For antagonist determination, cells were pre-incubated with the sample at different dilutions. Following dye administration, the sample was added to the cells in the presence of EC80 agonist and then re-incubated at room temperature in the dark.
(§9) For antagonist mode assays, percentage inhibition was calculated using the following formula: % Inhibition=100%×(1−(mean RLU of test sample−mean RLU of vehicle control)/(mean RLU of EC80 control−mean RLU of vehicle control)).

Assay [9] deals with T7, HTR2B. As to the kind of experiment: Calcium mobilization assay, HTR2B antagonist mode. The format is cell-based. As for the experimental part: Activation of the GPCR results in the release of calcium from intracellular stores and an increase in dye fluorescence that can be measured.
Cell lines were expanded from freezer stocks and seeded into multi-well microplates. Then, the plates were incubated at 37° C. for an appropriate amount of time and loaded with Dye Loading buffer. To determine compound agonist activity, cells were incubated with the sample to induce a response, and HBSS/20 mM Hepes was added using a FLIPR Tetra (MDS). Activity was measured on a FLIPR Tetra. Calcium mobilization was monitored for 2 minutes.
To determine compound antagonist activity, cells were pre-incubated with the sample followed by an post-incubation administration of the compound with 3×EC80 agonist using FLIPR. Compound antagonist activity was measured on a FLIPR Tetra (MDS) and calcium mobilization was monitored for 2 minutes.
For antagonist mode assays, percentage inhibition was calculated using the following formula: % Inhibition=100%×(1−(mean RFU of test sample−mean RFU of vehicle control)/(mean RFU of EC80 control−mean RFU of vehicle control)).

The target of assay [10] is T9, CAV1.2 (Homo sapiens, UniProt Q13936).
T9 construct: expressed in transfected cells
The experiment in a line: FLIPR membrane potential ion channel assay, CAV1.2 blocker. The format is cell-based.
Protocol: as §6, §7, §8, §9

Assay [11] has as its target T10, HTR1A (Homo sapiens, UniProt P08908).
T10 construct: expressed in transfected cells
T10 sequence (P08908 1-422): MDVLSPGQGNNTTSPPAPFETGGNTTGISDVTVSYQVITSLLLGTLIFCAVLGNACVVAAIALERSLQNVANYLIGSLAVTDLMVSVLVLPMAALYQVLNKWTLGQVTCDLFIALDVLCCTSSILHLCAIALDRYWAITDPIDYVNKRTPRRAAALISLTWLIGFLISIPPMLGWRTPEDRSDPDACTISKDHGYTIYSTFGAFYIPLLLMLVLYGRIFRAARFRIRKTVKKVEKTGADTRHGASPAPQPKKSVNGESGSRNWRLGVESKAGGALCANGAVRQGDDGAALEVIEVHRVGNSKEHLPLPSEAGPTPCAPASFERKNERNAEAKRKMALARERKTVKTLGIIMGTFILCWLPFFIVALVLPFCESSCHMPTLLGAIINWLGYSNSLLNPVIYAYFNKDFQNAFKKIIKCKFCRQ
The experiment in a line: In vitro functional activity, HTR1A agonist mode. Type of assay: cell-based.
Protocol: (§10) Such activity was determined to assess potential neuromodulatory activity and safety liabilities.

Assay [12] concerns the target T11, HTR6 (Homo sapiens, UniProt P50406).
T11 construct: expressed in transfected cells
As to the kind of experiment: PathHunter beta-Arrestin assay, HTR6 agonist mode. Type of assay: cell-based.
Protocol: The assay monitors restoration of ß-galactosidase (β-Gal) as a marker of GPCR activation and recruitment of β-Arrestin to the receptor.
3.5 μL of concentrated sample was added to cells and incubated at 37° C. or room temperature for 90 to 180 minutes. Vehicle concentration was 1%.
Assay signal was generated through a single addition of 50% v/v of PathHunter Detection reagent cocktail, followed by a one hour incubation at room temperature. Microplates were read following signal generation with a plate reader set to detect chemiluminescent signals. Compound activity was analyzed using CBIS data analysis suite (ChemInnovation, CA).

Assay [13] addresses T12, HTR2A (Homo sapiens, UniProt P28223).
T12 construct: expressed in transfected cells
The experiment in a line: Calcium mobilization assay, HTR2A agonist mode. The format is cell-based. As to conditions: for agonist activity at HTR2A: agonist mode.
Protocol: as §5

The target in assay [14] is T13, DRD2S (Homo sapiens, UniProt P14416).
T13 construct: expressed in transfected cells
As to the kind of experiment: HitHunter cAMP assay, DRD2S agonist mode. Type of assay: cell-based. Background: Changes in cAMP serve as a functional read-out for many G protein-coupled receptors.
Protocol: as §1
Compound activity was analyzed using CBIS data analysis suite (ChemInnovation, CA). For Gs agonist mode assays, percentage activity was calculated using the following formula: % Activity=100%×(mean RLU of test sample−mean RLU of vehicle control)/(mean RLU of MAX control−mean RLU of vehicle control).
For Gi agonist mode assays, percentage activity was calculated using the following formula: % Activity=100%×(1−(mean RLU of test sample−mean RLU of MAX control)/(mean RLU of vehicle control−mean RLU of MAX control)).

Assay [15] deals with T14, HRH1 (Homo sapiens, UniProt P35367).
T14 construct: expressed in transfected cells
The experiment in a line: cell-based. The following applies: antagonist mode; for IC50: read-out: EC50/IC50, HRH1 (Antagonist). The format is cell-based.
Protocol: as §10

For assay [16], the target named is T12, HTR2A. The experiment in a line: Calcium mobilization assay, HTR2A antagonist mode. The format is cell-based.
Protocol: Cell lines were expanded from freezer stocks and seeded into multi-well microplates. Then, the plates were incubated at 37° C. for an appropriate amount of time and loaded with Dye Loading buffer. […] Activity was measured on a FLIPR Tetra. Calcium mobilization was monitored for 2 minutes.
In assay [17] the target is T15, NAV1.5 (Homo sapiens, UniProt Q14524).
T15 construct: expressed in transfected cells
As to the kind of experiment: FLIPR membrane potential ion channel assay, NAV1.5 blocker. Type of assay: cell-based.
Protocol: as §6, §7, §8, §9

Assay [18] deals with T16, HTR1B (Homo sapiens, UniProt P28222).
T16 construct: expressed in transfected cells
As to the kind of experiment: In vitro functional activity, HTR1B agonist mode. Type of assay: cell-based.
Protocol: as §10

T13 sequence (P14416 1-414 isoform P14416-2): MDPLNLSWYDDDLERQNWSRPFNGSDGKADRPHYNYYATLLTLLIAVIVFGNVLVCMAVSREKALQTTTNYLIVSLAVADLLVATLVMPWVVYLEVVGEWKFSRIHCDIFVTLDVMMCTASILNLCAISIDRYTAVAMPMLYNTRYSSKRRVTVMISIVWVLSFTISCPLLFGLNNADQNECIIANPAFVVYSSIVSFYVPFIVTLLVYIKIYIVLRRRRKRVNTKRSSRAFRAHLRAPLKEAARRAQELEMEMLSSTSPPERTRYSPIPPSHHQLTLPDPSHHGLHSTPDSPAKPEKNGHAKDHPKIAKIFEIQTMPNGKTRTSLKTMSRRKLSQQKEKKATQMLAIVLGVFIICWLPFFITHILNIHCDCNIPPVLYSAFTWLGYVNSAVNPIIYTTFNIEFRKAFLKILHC
T4 sequence (P23975 whole entry): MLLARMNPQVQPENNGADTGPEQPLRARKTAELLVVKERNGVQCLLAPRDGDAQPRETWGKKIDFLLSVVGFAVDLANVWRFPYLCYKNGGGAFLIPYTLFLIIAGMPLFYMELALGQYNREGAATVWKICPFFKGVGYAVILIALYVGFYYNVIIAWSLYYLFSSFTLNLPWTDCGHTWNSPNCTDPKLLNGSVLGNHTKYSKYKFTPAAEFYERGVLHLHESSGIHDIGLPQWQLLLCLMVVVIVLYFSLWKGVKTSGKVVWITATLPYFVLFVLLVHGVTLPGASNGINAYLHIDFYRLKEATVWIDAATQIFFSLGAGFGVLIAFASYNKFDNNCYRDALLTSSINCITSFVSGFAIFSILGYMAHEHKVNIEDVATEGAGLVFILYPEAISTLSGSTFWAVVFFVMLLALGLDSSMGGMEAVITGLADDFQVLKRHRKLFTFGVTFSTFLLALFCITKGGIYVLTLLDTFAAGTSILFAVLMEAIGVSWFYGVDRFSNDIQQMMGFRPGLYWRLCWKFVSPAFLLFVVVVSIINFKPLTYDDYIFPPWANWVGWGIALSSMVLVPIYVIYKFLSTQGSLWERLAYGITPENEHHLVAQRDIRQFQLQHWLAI
T9 sequence (Q13936 whole entry): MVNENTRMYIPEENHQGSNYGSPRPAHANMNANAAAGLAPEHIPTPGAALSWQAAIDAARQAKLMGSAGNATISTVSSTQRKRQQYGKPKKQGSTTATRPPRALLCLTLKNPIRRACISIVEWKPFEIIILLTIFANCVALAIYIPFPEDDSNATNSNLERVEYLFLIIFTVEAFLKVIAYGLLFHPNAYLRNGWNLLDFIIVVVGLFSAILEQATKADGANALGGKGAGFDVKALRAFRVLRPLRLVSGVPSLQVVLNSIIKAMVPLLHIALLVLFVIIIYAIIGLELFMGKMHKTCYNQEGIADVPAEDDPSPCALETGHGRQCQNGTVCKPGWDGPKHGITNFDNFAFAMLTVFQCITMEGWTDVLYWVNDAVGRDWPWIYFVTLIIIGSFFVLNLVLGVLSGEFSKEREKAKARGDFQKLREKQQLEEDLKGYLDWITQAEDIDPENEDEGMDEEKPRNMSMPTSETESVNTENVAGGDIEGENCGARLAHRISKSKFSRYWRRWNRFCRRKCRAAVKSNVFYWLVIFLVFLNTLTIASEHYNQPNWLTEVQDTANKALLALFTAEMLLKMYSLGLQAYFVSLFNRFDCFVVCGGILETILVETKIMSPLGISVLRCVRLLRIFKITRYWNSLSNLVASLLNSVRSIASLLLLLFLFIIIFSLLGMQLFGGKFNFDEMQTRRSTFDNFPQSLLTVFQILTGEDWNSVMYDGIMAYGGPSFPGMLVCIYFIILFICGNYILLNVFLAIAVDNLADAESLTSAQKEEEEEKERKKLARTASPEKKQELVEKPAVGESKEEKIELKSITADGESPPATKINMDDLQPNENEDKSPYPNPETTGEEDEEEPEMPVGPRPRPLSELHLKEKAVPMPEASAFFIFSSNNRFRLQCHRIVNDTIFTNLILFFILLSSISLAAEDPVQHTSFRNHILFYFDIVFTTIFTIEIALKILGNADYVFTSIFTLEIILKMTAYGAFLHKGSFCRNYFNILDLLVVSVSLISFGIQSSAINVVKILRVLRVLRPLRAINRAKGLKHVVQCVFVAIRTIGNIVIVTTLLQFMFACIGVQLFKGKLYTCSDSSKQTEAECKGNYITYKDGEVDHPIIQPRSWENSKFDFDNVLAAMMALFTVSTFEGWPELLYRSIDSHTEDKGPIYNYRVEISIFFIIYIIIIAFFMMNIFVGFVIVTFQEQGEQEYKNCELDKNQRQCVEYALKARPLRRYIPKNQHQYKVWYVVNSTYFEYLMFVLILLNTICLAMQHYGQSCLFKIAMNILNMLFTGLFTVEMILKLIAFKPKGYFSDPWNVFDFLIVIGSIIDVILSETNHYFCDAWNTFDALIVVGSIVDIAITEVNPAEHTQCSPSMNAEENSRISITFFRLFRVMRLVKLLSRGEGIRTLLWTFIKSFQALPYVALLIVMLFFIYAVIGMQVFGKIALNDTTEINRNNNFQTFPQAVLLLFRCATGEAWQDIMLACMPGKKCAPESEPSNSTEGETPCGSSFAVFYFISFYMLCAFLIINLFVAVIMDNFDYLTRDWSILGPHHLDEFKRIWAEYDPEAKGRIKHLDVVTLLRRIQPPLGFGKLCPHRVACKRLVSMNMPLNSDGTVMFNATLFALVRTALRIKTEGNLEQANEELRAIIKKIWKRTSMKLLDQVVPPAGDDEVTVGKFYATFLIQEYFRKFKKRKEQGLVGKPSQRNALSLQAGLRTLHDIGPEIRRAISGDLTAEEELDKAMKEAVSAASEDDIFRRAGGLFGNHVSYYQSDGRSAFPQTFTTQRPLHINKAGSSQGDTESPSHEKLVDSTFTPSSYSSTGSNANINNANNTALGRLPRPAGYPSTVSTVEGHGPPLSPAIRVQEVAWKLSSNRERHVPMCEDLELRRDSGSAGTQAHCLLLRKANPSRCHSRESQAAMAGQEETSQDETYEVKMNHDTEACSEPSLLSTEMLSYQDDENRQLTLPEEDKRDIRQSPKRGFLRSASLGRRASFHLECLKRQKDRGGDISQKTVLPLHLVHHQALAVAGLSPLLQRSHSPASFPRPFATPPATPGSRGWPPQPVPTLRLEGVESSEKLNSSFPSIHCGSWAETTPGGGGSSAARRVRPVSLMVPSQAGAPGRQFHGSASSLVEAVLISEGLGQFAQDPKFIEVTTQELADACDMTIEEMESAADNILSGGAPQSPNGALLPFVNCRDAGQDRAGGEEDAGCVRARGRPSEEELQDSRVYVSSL
T9 sequence (Q08289 whole entry partner): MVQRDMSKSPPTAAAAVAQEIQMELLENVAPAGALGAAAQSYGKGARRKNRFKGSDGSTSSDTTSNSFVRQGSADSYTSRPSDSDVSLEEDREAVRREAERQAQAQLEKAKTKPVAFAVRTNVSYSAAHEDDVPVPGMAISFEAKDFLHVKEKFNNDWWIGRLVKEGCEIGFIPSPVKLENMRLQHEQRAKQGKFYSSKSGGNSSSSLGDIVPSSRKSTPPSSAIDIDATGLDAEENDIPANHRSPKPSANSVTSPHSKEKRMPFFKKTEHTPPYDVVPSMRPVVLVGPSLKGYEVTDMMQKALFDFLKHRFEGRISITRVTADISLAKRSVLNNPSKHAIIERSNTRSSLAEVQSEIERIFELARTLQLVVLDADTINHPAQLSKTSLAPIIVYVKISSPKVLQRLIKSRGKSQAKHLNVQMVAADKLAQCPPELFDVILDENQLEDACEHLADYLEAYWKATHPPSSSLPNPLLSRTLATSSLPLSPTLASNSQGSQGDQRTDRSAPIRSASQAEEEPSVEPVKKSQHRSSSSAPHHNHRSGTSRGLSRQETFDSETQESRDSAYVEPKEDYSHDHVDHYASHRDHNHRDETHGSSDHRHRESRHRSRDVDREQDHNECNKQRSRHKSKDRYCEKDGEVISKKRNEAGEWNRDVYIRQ
T9 sequence (P54289 25-956 partner limits assumed): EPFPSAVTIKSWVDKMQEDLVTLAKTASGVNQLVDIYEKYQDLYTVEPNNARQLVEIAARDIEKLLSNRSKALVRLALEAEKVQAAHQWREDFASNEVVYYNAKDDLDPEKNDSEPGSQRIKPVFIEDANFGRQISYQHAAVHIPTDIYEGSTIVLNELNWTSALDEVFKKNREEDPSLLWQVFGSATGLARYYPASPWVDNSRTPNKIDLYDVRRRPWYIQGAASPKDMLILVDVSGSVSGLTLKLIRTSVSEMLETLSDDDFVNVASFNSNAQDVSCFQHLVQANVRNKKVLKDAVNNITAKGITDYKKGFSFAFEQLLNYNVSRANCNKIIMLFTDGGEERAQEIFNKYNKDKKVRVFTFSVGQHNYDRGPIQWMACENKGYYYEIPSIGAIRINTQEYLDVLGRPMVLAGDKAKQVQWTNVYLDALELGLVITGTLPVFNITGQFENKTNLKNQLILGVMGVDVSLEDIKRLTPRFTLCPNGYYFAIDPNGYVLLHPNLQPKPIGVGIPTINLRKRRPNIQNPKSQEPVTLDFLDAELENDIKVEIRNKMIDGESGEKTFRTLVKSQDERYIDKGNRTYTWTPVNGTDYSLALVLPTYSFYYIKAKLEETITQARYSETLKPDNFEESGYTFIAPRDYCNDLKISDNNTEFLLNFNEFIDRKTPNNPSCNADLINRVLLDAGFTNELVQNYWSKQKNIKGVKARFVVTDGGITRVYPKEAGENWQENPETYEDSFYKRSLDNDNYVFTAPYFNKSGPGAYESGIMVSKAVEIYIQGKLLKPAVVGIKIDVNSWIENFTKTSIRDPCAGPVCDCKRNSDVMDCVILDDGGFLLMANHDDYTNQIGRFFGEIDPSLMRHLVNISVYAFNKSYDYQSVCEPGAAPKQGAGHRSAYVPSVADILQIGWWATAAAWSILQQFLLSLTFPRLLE
T9 sequence (P54289 957-1103 partner limits assumed): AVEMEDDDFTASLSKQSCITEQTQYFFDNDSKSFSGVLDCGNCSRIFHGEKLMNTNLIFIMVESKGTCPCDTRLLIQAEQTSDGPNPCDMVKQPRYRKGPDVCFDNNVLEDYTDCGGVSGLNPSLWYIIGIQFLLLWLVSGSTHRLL

For the compound `C=CCN(CCc1c[nH]c2ccc(OC)cc12)C(C)C` [ASR-3001, N-isopropyl-N-(2-(5-methoxy-1H-indol-3-yl)ethyl)prop-2-en-1-amine hydrochloride], the IC50 was above 10 µM in assay [1]; above 10 µM in assay [2]; 6.84 µM in [3]; above 10 µM in assay [4]; above 10 µM in assay [5]; above 10 µM in assay [6]. Besides, the IC50 was above 10 µM in assay [8]; 0.0511 µM in assay [9]; above 10 µM in [10]; above 10 µM in assay [15]; 0.0646 µM in assay [16]; above 10 µM in assay [17]. The EC50 in assay [7] is 0.0874 µM; in [11] it was 0.642 µM; in assay [12], 0.42 µM; in [13], 0.00985 µM; in assay [14] it was above 10 µM; in assay [18] it was 0.0468 µM. Further, in assay [13], the “agonist activity at HTR2A” value was “potent agonist activity”.
For the compound `C=CCN(CCc1c(C)[nH]c2ccccc12)C(C)C` [ASR-3002, N-isopropyl-N-(2-(2-methyl-1H-indol-3-yl)ethyl)prop-2-en-1-amine hydrochloride], the IC50 is 0.383 µM in [1]; above 10 µM in assay [2]; above 10 µM in assay [3]; above 10 µM in assay [4]; 8.52 µM in assay [5]; above 10 µM in [6]. In addition, the IC50 is above 10 µM in [8]; 0.498 µM in assay [9]; above 10 µM in assay [10]; above 10 µM in assay [15]; 4.13 µM in assay [16]; above 10 µM in [17]. In addition, the EC50 in assay [7] is 1.28 µM; in [11], above 10 µM; in [12], 1.68 µM; in assay [13] it was 2.6 µM; in assay [14], 4.48 µM; in [18], 4.95 µM. For the same compound, in assay [13], the “agonist activity at HTR2A” value is “potent agonist activity”. For the same compound, in assay [14] (agonist mode), the “agonistic activity for dopamine receptor D2 short isoform” value is reported as “agonistic activity”.
As for `C=CCN(CCc1c[nH]c2ccccc12)C(C)C` [ASR-3003, N-(2-(1H-indol-3-yl)ethyl)-N-isopropylprop-2-en-1-amine hydrochloride], the IC50 in assay [1] is 3.72 µM; in assay [2], above 10 µM; in assay [3], 2.37 µM; in assay [4] it was above 10 µM; in [5], above 10 µM; in assay [6] it was above 10 µM. For the same compound, the IC50 was above 10 µM in assay [8]; 0.507 µM in assay [9]; above 10 µM in assay [10]; 6.29 µM in assay [15]; 1.41 µM in assay [16]; above 10 µM in [17]. The EC50 is 2.54 µM in assay [7]; above 10 µM in assay [11]; 4.26 µM in [12]; 0.462 µM in assay [13]; 0.183 µM in assay [14]; 0.813 µM in assay [18]. Besides, the “agonist activity at HTR2A” value in [13] is given as “potent agonist activity”. For the same compound, the “agonistic activity for dopamine receptor D2 short isoform” value in assay [14] (agonist mode) is recorded as “agonistic activity”. Moreover, the “potency for DRD2S” value in assay [14] (agonist mode) is given as “nanomolar level”. Besides, the “antagonistic effects at histamine receptor H1” value in [15] is recorded as “antagonistic effects”.

As usually defined, the EC50 is the midpoint of the concentration-response curve.
